Patent US8614218B2, “Fused bicyclic pyrimidines” (Bayer Intellectual Property GmbH, priority 2007, dated 2013)
pIC50: −log10 of the molar value.

Tests used:
Assay type in all cases: cell-based
phospho-GSK3 (Ser9) = assay: Cellular pGSK3 assay (phospho-GSK3 ELISA); settings: Homo sapiens, MCF7 cells, 48 h incubation, read-out: Cellular pGSK3 pathway assay
Method: In order to study the cellular activity of the compounds according to the present invention, an ELISA-based assay has been established for the phosphorylated protein glycogen synthetase kinase 3 (GSK3). The assay is based on a solid phase sandwich ELISA that detects endogenous levels of phosphorylated GSK3 using a phospho-GSK3 (Ser9) specific antibody (BioSource International, Inc.; Catalog #KHO0461). After incubation with cell lysates, the coated antibody captures the phosphorylated GSK3 protein. Following extensive washing, GSK3 polyclonal antibody is added to detect the captured phospho-GSK3 protein. Secondary antibody (anti-rabbit IgG-HRP) is then used to recognize the bound detection antibody. After the second incubation and washing to remove all the excess anti-rabbit IgG-HRP, a substrate solution is added, which is acted upon by the bound enzyme to produce color. The intensity of this colored product is directly proportional to the concentration of GSK-3β [pS9] present in the original specimen. MCF7 cells (ATCC HTB-22) were seeded into 96 well fate bottom plates at a density of 10000 cells/well. After 24 h 1 μl each of the compound dilutions (test compounds were dissolved as 10 mM solutions in dimethylsulfoxide (DMSO) and subsequently diluted) were added into each well of the 96 well plates and incubated for 48 h at 37° C. in a humidified atmosphere containing 5% CO2. Cells were harvested and lysed in cell extraction buffer (10 mM Tris, pH 7.4, 100 mM NaCl, 1 mM EDTA, 1 mM EGTA, 1 mM NaF, 20 mM Na4P2O7, 2 mM Na3VO4, 1% Triton X-100, 10 vol % glycerol, 0.1 vol % SDS, 0.5 vol % deoxycholate, 1 mM phenylmethylsulfonylfluoride (PMSF)). The lysate were centrifuged for 10 min. at 4° C. and the supernatant were transferred to a new tube. 50 μl of sample diluent (standard diluent buffer, Biosource) were added and 100 μl of cell lysate transferred into the tube and vortexed. 100 μl of each diluted cell lysate were added to the appropriate ELISA well plate and incubated for 3 h at room temperature. The plates were washed 4 times with 1× wash buffer (Biosource). 50 μl of detection antibody (GSK3 (Ser9) detection antibody; BioSource) were added to each well and incubated for 30 min. at room temperature. The washing procedure was repeated between each step. 100 μl of HRP-linked secondary antibody (anti-mouse IgG HRP-linked antibody) were added to each well and incubated for 30 min. at room temperature. 100 μl of TMB substrate (0.05 vol % 3,3′,5,5′ tetramethylbenzidine, 0.1 vol % hydrogen peroxide, complex polypeptides in a buffered solution; Biosource) were added to each well and incubated for 30 min. at room temperature. Finally 100 μl of Stop solution (0.05 vol % α and β unsaturated carbonyl compound) were added to each well and the plate were shaked gently for a few seconds. The absorbance was measured at λ=450 nm (Wallac Victor2; Perkin Elmer, USA) within 30 min. after adding the stop solution.
The analysis of the data was performed using a statistical program (Excel; Microsoft, USA) and the IC50 of pGSK3 inhibition was determined.

phospho-Akt (Ser473) = assay: Cellular PI3K/Akt pathway assay (phospho-Akt ELISA); settings: Homo sapiens, MCF7 cells, β-Heregulin stimulated, 48 h incubation
Text: Cellular PI3K/Akt Pathway Assay
In order to study the cellular activity of the compounds according to the present invention, an Enzyme Linked Immunosorbent Assay (ELISA)-based assay has been used specific phospho-AKT. The assay is based on a Sandwich ELISA kit (PathScan™ Phospho-Akt1 (Ser473); Cell Signaling, USA; #7160). The ELISA Kit detects endogenous levels of phosphorylated Akt protein. A phospho-Akt (Ser473) antibody (Cell Signaling, USA; #9271) has been coated onto the microwells. After incubation with cell lysates, the coated antibody captures the phosphorylated Akt protein. Following extensive washing, Akt1 monoclonal antibody (Cell Signaling, USA; #2967) is added to detect the captured phospho-Akt1 protein. HRP-linked anti-mouse antibody (HRP: horseradish peroxidase; Cell Signaling, USA; #7076) is then used to recognize the bound detection antibody. HRP substrate (=3,3′,5,5′-tetramethylbenzidine (TMB); Cell Signaling, USA; #7160) is added to develop colour. The magnitude of optical density for this developed color is proportional to the quantity of phosphorylated Akt protein.
MCF7 cells (ATCC HTB-22) are seeded into 96 well fate bottom plates at a density of 10000 cells/well. 24 hours after seeding, the cells are serum starved using low-serum medium (IMEM media including 0.1% charcoal treated FCS (FCS: fetal calf serum)). After 24 hours 1 μl each of the compound dilutions (test compounds were dissolved as 10 mM solutions in dimethylsulfoxide (DMSO) and subsequently diluted) are added into each well of the 96 well plates and incubated for 48 h at 37° C. in a humidified atmosphere containing 5% CO2. To stimulate Akt phosphorylation, β-Heregulin (20 ng/ml β-HRG) is added in parallel to the compounds. Wells containing unstimulated control cells (no β-Heregulin stimulation) are incubated with or without the diluted compound. Wells containing untreated control cells (no compound) are filled with medium containing 0.5% v:v DMSO and are or are not stimulated with β-Heregulin.
Cells are harvested and lysed with brief sonification in 1× cell lysis buffer (20 mM Tris (pH7.5), 150 mM NaCl, 1 mM ethylene diaminetetraacetate (EDTA), 1 mM ethylene glycolbis(2-aminoethyl)-N,N,N′,N′-tetraacetic acid (EGTA), 1 vol % Triton X-100, 2.5 mM sodium pyrophosphate, 1 mM β-glycerolphosphate, 1 mM Na3VO4, 1 μg/ml leupeptin). The lysate is centrifuged for 10 min. at 4° C. and the supernatant is transferred to a new tube. 100 μl of sample diluent (0.1 vol % Tween-20, 0.1 vol % sodium azide in phosphate buffered saline (PBS)) are added to a microcentrifuge tube and 100 μl of cell lysate are transferred into the tube and vortexed. 100 μl of each diluted cell lysate are added to the appropriate ELISA well, and incubated overnight at 4° C. The plates are washed 4 times with 1× wash buffer (1 vol % tween-20, 0.33 vol % thymol, in PBS). Next 100 μl of detection antibody (Akt1 (2H10) monoclonal detection antibody; Cell Signaling, USA; #2967) are added to each well and incubation continued for 1 h at 37° C. The washing procedure is repeated between each step. 100 μl of secondary antibody (anti-mouse IgG HRP-linked antibody; Cell Signaling, USA; #7076) are added to each well and incubated for 30 min. at 37° C. Than, 100 μl of TMB substrate (0.05% 3,3′,5,5′ tetramethylbenzidine, 0.1% hydrogen peroxide, complex polypeptides in a buffered solution; Cell Signaling, USA; #7160) are added to each well and incubated for 30 min. at 25° C. Finally 100 μl of STOP solution (0.05 vol % α and β unsaturated carbonyl compound) are added to each well and the plate are shaked gently. The absorbance is measured at λ=450 nm (Wallac Victor2; Perkin Elmer, USA) within 30 min. after adding the STOP solution. The analysis of the data is performed using a statistical program (Excel; Microsoft, USA). Preferred compounds show an inhibitory activity towards Akt phosphorylation below 10 μM.

A549 cells = assay: Cellular proliferation/cytotoxicity assay (Alamar Blue), A549; settings: Homo sapiens, 72 h, Alamar Blue (Resazurin), read-out: Anti-proliterative/Cytotoxic activity (A549 cells)
Method in brief: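 OvCAR3 (10000 cells/well) or A549 (2000 cells/well) were dosed 24 h after seeding and exposed for 72 h at 37 °C, 5% CO2, in duplicate or more. Resazurin was added for 4 h and fluorescence read at 544/590 nm. Viability is relative to untreated 0.5% DMSO controls, with IC50 by non-linear regression.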

Row | SMILES | pIC50 (phospho-GSK3 (Ser9)) | pIC50 (phospho-Akt (Ser473)) | pIC50 (A549 cells)
1 | Cc1c(-c2ccccc2)c(-c2ccc(CN3CCC(c4n[nH]c(-c5ccccn5)n4)CC3)cc2)nc2nccn12 [Example 27, 5-methyl-6-phenyl-7-(4-{[4-(5-pyridin-2-yl-1H-1,2,4-triazol-3-yl)piperidin-1-yl]methyl}phenyl)imidazo[1,2-a]pyrimidine] | 5.00 to 6.00 | < 5.00 | –
2 | COc1c(-c2ccccc2)c(-c2ccc(CN3CCC(c4n[nH]c(-c5ccccn5)n4)CC3)cc2)nc2ccnn12 [Example 29, 7-Methoxy-6-phenyl-5-(4-{[4-(5-pyridin-2-yl-1H-1,2,4-triazol-3-yl)piperidin-1-yl]methyl}phenyl)pyrazolo[1,5-a]pyrimidine] | 5.00 to 6.00 | – | < 5.00
